Test results taken from PubChem BioAssay AID1996.
In brackets after ≈: the same amount, converted by molar mass.

settings: buffer; pH 7.4; 200.0 µM

Point of comparison: O=S(=O)(Nc1c(F)cccc1F)c1ccc2c(c1)OCCO2, solubility kinetic 2.5 µg/mL (≈ 7.64 µM). Against it:
- O=C(COC(=O)c1cccnc1Cl)NCCc1ccccc1 — higher, > 47.8 µg/mL
- O=C(Cc1ccccc1)c1ccccc1C(=O)N1CCCCC1 — higher, > 46.1 µg/mL
- COc1cccc(C(=O)OCC(=O)N2CCc3ccccc3C2)c1 — 18-fold higher, 46.1 µg/mL (≈ 142 µM)
- Cc1cc(=S)c2ccccc2[nH]1 — 8.2-fold higher, 20.5 µg/mL (≈ 117 µM)
- O=C(NC(=S)NCCc1ccccc1)c1ccccc1F — 3.1-fold lower, 0.8 µg/mL (≈ 2.65 µM)
- COC(=O)[C@H](Cc1ccccc1)NC(=O)NCCc1ccccc1F — higher, > 51.7 µg/mL
- Cc1cc(NC(=O)CS(=O)(=O)c2ccc(Cl)cc2)no1 — 5.8-fold higher, 14.4 µg/mL (≈ 45.8 µM)
- CCN(CC)c1ccc(NC(=S)Nc2ccc(F)cc2)cc1 — 3.6-fold higher, 9 µg/mL (≈ 28.4 µM)
- Clc1ccc(CN2CCC(c3ccccc3)CC2)cc1 — 1.7-fold higher, 4.3 µg/mL (≈ 15 µM)
- CC1CCCCC12NC(=O)N(CC(=O)NCCc1ccccc1)C2=O (stereo unspecified) — higher, > 51.5 µg/mL
- Cc1nc2c(C)cccc2c2c1CCN2c1ccccc1F — 13-fold higher, 33.3 µg/mL (≈ 114 µM)
- CC(NC(=O)C1c2ccccc2Oc2ccccc21)C1CCCO1 (stereo unspecified) — 15-fold higher, 37.8 µg/mL (≈ 117 µM)
- CN(Cc1c(F)cccc1Cl)C(=O)c1ccc(NC(=O)CC2SC(N3CCCCC3)=NC2=O)cc1 (stereo unspecified) — 21-fold higher, 53.2 µg/mL (≈ 103 µM)
- Cc1csc(NC(=O)C2CC(=O)N(Cc3ccco3)C2)n1 (stereo unspecified) — higher, > 45.8 µg/mL
- FC(F)(F)c1ccccc1NC(=S)N1CCCCCC1 — higher, > 45.4 µg/mL
- COc1ccccc1NC(=O)COC(=O)/C=C/c1cccs1 — 1.8-fold higher, 4.4 µg/mL (≈ 13.9 µM)
- CN(C(=O)COC(=O)c1ccc2c(c1)OCO2)C1CCCCC1 — higher, > 47.9 µg/mL
- CNC(=S)SCCOc1ccccc1 — 7-fold higher, 17.5 µg/mL (≈ 77 µM)
- CCOC(=O)N1CCN(C(=O)CCc2ccccc2)CC1 — higher, > 43.6 µg/mL
- O=C1COc2ccc(S(=O)(=O)NCCc3ccccc3)cc2N1 — 5.2-fold higher, 13 µg/mL (≈ 39.1 µM)
- CN(C)c1cccc(C(=O)Nc2nc3ccccc3[nH]2)c1 — 4.8-fold higher, 12.1 µg/mL (≈ 43.2 µM)
- COc1cccc(C(=O)OCC(=O)NCCC2=CCCCC2)c1 — 10-fold higher, 25.8 µg/mL (≈ 81.3 µM)
- O=C1CC(NC2CCN(C(=O)c3cccc(F)c3)CC2)C(=O)N1 (stereo unspecified) — higher, > 47.9 µg/mL
- COc1ccccc1NS(=O)(=O)c1cc(NC(=O)COc2ccccc2F)ccc1N1CCOCC1 — within 1.5-fold, 2.4 µg/mL (≈ 4.66 µM)
- Cc1cc(C(=O)N2CCN(C(=O)c3ccco3)CC2)ccc1[N+](=O)[O-] — 19-fold higher, 47.5 µg/mL (≈ 138 µM)
- CC(OC(=O)C1CCC1)C(=O)Nc1cc(Cl)cc(Cl)c1 (stereo unspecified) — within 1.5-fold, 2.4 µg/mL (≈ 7.59 µM)
- COC(=O)CNc1nc(Cl)nc(NC2CCCCC2)n1 — 11-fold higher, 27.7 µg/mL (≈ 92.4 µM)
- O=C(CCSCc1ccc(Cl)cc1)NCc1cccs1 — 11-fold higher, 28.3 µg/mL (≈ 86.8 µM)
- Cc1ccc(S(=O)(=O)N2CCCN(C(=O)OC(C)(C)C)CC2)cc1 — higher, > 53.2 µg/mL
- O=C(NCC1CCCO1)c1cc(-c2ccc(F)cc2)no1 (stereo unspecified) — higher, > 43.5 µg/mL
- COc1ccc(CC(=O)Nc2cccc3ncccc23)cc1OC — higher, > 48.4 µg/mL
- COc1ccccc1CNC(=O)c1cc(-c2cccnc2)nc2ccccc12 — 3.6-fold lower, 0.7 µg/mL (≈ 1.89 µM)
- CC1(C)CC(=O)C=C(Nc2ccc(O)c(C(=O)O)c2)C1 — higher, > 41.3 µg/mL
- Cc1onc(-c2ccccc2)c1NC(=O)N(CCC#N)Cc1cccs1 — 22-fold higher, 54.4 µg/mL (≈ 148 µM)
- Cc1cccc(NC(=O)CCc2ccccc2)c1 — 14-fold higher, 35 µg/mL (≈ 146 µM)
- CC(=O)c1c(Nc2cccc(F)c2)oc(C)cc1=O — 13-fold higher, 31.3 µg/mL (≈ 120 µM)
- N/C(Cc1cccc2ccccc12)=N\O — 6.1-fold higher, 15.2 µg/mL (≈ 75.9 µM)
- OCCCc1nc2ccccc2n1Cc1ccccc1 — higher, > 40 µg/mL
- Cc1cc2c(cc1C)C(c1ccccc1F)CC(=O)N2 (stereo unspecified) — lower, < 0.6 µg/mL
- Brc1ccc(OCc2nc3ccccc3[nH]2)cc1 — within 1.5-fold, 2.4 µg/mL (≈ 7.92 µM)
- COc1ccc2nc(SCCC(=O)O)cc(C)c2c1 — higher, > 41.6 µg/mL
- CC(C)CNS(=O)(=O)c1cc(C(=O)O)c(Cl)cc1Cl — higher, > 48.9 µg/mL
- COc1ccc(NC(=O)CSc2nnc(-c3cccnc3)n2C)cc1 — higher, > 53.3 µg/mL
- Cc1cc(Nc2ccccc2Cl)nc(-c2ccccc2O)n1 — 1.9-fold lower, 1.3 µg/mL (≈ 4.17 µM)
- CN1CCN(C(=O)/C=C/c2ccccc2)CC1 — higher, > 34.5 µg/mL
- Cc1cc2nc(Cl)c(Cl)nc2cc1C — 4.2-fold lower, 0.6 µg/mL (≈ 2.64 µM)
- Cc1ccc(S(=O)(=O)N2CCN(C(=O)Cn3c(=O)cnc4ccccc43)CC2)c(C)c1 — higher, > 66.1 µg/mL
- COc1cccc2cc(C(=O)N3CCCCCCC3)c(=O)oc12 — higher, > 47.3 µg/mL
- CC(=O)N(Nc1ccccc1)c1ccccc1 — higher, > 33.9 µg/mL
- Cc1csc(=O)n1CC(=O)OCC(=O)NCc1ccccc1 — higher, > 48.1 µg/mL
- Cc1ccc(S(=O)(=O)N2CCOCC2)cc1NC(=O)COC(=O)/C=C/c1ccco1 — 4.6-fold higher, 11.4 µg/mL (≈ 26.2 µM)
- COc1ccc(S(N)(=O)=O)cc1C(=O)OCC(=O)N1c2ccccc2NC(=O)C1(C)C — higher, > 67.1 µg/mL
- CCOC(=O)C1(C)NC(c2ccco2)C2C(=O)N(C)C(=O)C21 (stereo unspecified) — higher, > 45.9 µg/mL
- Cc1ccc(S(=O)(=O)Nc2cccc(C(=O)NCC(c3ccc(F)cc3)N3CCOCC3)c2)cc1 (stereo unspecified) — 23-fold higher, 58.2 µg/mL (≈ 117 µM)
- O=C(O)CCC(=O)NCC(=O)c1ccc(F)cc1 — higher, > 38 µg/mL
- COc1cccc(NC(=O)COC(=O)CCSc2ccccc2)c1 — 16-fold higher, 39.8 µg/mL (≈ 115 µM)
- CSc1ncccc1C(=O)OCC(=O)Nc1ccc(N2CCOCC2)cc1 — 4.2-fold higher, 10.6 µg/mL (≈ 27.4 µM)
- CC1=C(C)CC(C(=O)NC2CCN(C(C)C)CC2)C(C(=O)O)C1 (stereo unspecified) — higher, > 48.4 µg/mL
- CCC(C)NC(=O)c1ccc(CN2CCc3ccccc3C2)cc1 (stereo unspecified) — 2.8-fold higher, 7.1 µg/mL (≈ 22 µM)
- CN(C)C(=O)C12CCC(C)(C(=O)C1Br)C2(C)C (stereo unspecified) — higher, > 45.3 µg/mL
- CC12CCC(C(=O)N3CCOCC3)([C@H](Br)C1=O)C2(C)C (stereo partly specified) — higher, > 51.6 µg/mL
- Cc1cc(C)c2nc(N(CCN(C)C)C(=O)/C=C/c3cccs3)sc2c1.Cl — 2.8-fold lower, 0.9 µg/mL
- O=C(CCCc1nc2ccccc2s1)NCc1cccnc1 — higher, > 46.7 µg/mL
- CC(=O)c1ccc(NC(=O)NC2CCCCCCC2)cc1 — 2-fold higher, 5.1 µg/mL (≈ 17.7 µM)
- CC(C)(CO)NC(=O)C12CC3CC(CC(Br)(C3)C1)C2 — higher, > 49.5 µg/mL
- CNC1=CC(=O)CC(c2ccccc2)C1 (stereo unspecified) — higher, > 30.2 µg/mL
- CC(C)(C)N(Cc1ccccc1)C(=O)c1cc2ccccc2o1 — 2.3-fold lower, 1.1 µg/mL (≈ 3.58 µM)
- Cc1cc(Nc2ccccc2)n(-c2ccc(C(=O)O)cc2)n1 — higher, > 44 µg/mL
- Cc1c(C(=O)O)sc2nc(/C=C/c3cccc(F)c3)[nH]c(=O)c12 — 17-fold higher, 41.3 µg/mL (≈ 125 µM)
- Cc1ccccc1CNC(=O)CN1C(=O)c2ccccc2S1(=O)=O — 4.5-fold higher, 11.2 µg/mL (≈ 32.5 µM)
- O=C(N[C@@H](Cc1c[nH]c2ccccc12)C(=O)O)c1ccc(Cl)cc1 — higher, > 51.4 µg/mL
- CC1CCC(NS(=O)(=O)c2ccc3c(c2)CC(=O)N3)CC1 (stereo unspecified) — 11-fold higher, 27.3 µg/mL (≈ 88.5 µM)
- CCCS(=O)(=O)N1CCCC(C(=O)NCCc2ccccc2)C1 (stereo unspecified) — 19-fold higher, 48.5 µg/mL (≈ 143 µM)
- C(=N\Nc1nc2ccccc2[nH]1)/C1CCCCC1 — higher, > 36.3 µg/mL
- O=C1C(=O)N(CCS(=O)(=O)c2ccccc2)c2ccccc21 — higher, > 47.3 µg/mL
- Cc1cccc(-c2noc(CN(C)C(=O)c3ccco3)n2)c1 — higher, > 44.6 µg/mL
- CC(C)n1c(SCC(=O)NC2CC2)nnc1C1CC1 — higher, > 42.1 µg/mL
- COc1ccc(CNC(=O)C(C)N(C)Cc2cccc(F)c2)cc1 (stereo unspecified) — 10-fold higher, 26.1 µg/mL (≈ 79 µM)
- CC1CC(C)CN(C(=O)c2ccc(C#N)cc2)C1 (stereo unspecified) — higher, > 36.3 µg/mL
- CCOc1ncccc1C(=O)Nc1ccc2nc(C)sc2c1 — 1.7-fold higher, 4.2 µg/mL (≈ 13.4 µM)
- CCSc1c([N+](=O)[O-])c(=O)n(-c2ccccc2)c2ccccc12 — 1.9-fold lower, 1.3 µg/mL (≈ 3.98 µM)
- N#Cc1ccc(OCC(=O)N2CCc3ccccc32)cc1 — within 1.5-fold, 1.8 µg/mL (≈ 6.47 µM)
- COc1ccc(CCN2Cc3c(N)cccc3C2=O)cc1OC — higher, > 46.9 µg/mL
- Cn1cccc1/C=C(\C#N)c1ccccc1 — 6.2-fold higher, 15.4 µg/mL (≈ 73.9 µM)
- Cc1cccc(C(=O)OCC(=O)N2CCCC2=O)c1O — higher, > 41.6 µg/mL
